{"source": "patent US10154970B2", "about": "“Methods for immunomodulation of cancer and infectious disease therapy” (The Regents of the University of California, priority 2014, dated 2018)", "key": {"[1]": {"test_system": "IFN-γ", "test": "IFN-γ mRNA expression in Jurkat cells by qRT-PCR, normalized with GAPDH", "type": "cell-based, human", "protocol": "(§1) FIG. 1. Interferon gamma (IFN-γ) and interleukin (IL)-2 expression in human Jurkat cells following exposure to TRIP in vitro. Jurkat cells (2×10^6) were treated with different concentrations of TRIP as indicated for 24 hours. (A) IFN-γ and (B) IL-2 mRNA expression levels were detected by quantitative real-time polymerase chain reaction (qRT-PCR) and normalized with the expression of GAPDH. *p<0.05, **p<0.01, ***p<0.001.\nFIG. 2. Effect of tamoxifen on TRIP-induced expression of IFN-γ in vitro. Jurkat cells (2×10^6) were treated with TRIP (2.5 μM) and/or tamoxifen (2.5 μM) for 24 hours. The expression levels of IFN-γ were analyzed by qRT-PCR and normalized with GAPDH. **p<0.01, ***p<0.005.\n(§2) FIG. 3. Effects of TRIP alone and in combination with trifluoperazine (TFP) or LY294002 (LY) on IFN-γ and IL-2 in human Jurkat cells in vitro. Jurkat cells (2×10^6) were pretreated with different concentrations of (A, B) TFP (0, 0.1, 1.0, 5.0, and 10.0 μM) and (C, D) LY294002 (0, 1, 5, 10, and 25 μM) for 1 hour, then incubated with medium containing 2.5 μM of TRIP for 24 hours. (A, C) IFN-γ and (B, D) IL-2 mRNA expression levels were detected by qRT-PCR and normalized with the expression of GAPDH. *p<0.05, **p<0.01, ***p<0.001.\n(§3) FIG. 4. Effects of calmodulin, PI3K and MAPK inhibition on TRIP-induced expression of IFN-γ and IL-2 in human Jurkat cells in vitro. Jurkat cells (2×10^6) were pretreated with PD98059 (50 μM), TFP (10 μM) and LY294002 (25 μM) for 1 hour, then incubated with medium containing 2.5 μM of TRIP for 24 hours. (A) IFN-γ and (B) IL-2 mRNA expression levels were detected by qRT-PCR and normalized with the expression of GAPDH. **p<0.01, ***p<0.001, ****p<0.0001.\n(§4) The potential immune regulating effects of TRIP and the possible mechanism(s) involved were determined with in vitro experiments examining the expression of T cell activating cytokines in human acute T cell leukemia Jurkat cells. The expression of IFN-γ and IL-2 RNA following exposure to increasing concentrations of TRIP (i.e., ospemifene) were first examined, followed by the effects of combining tamoxifen with TRIP on the expression of these cytokines. Different inhibitors of key T cell activation pathways—trifluoperazine (TFP), an inhibitor of calmodulin, LY294002, an inhibitor of PI3K, and PD98059, a MAPK inhibitor—in combination with TRIP were assessed for their effects on TRIP-induced expression of IFN-γ and IL-2 in Jurkat cells.\n(§5) Jurkat cells (2.0×10^6) were treated with different concentrations of TRIP as indicated on the x-axis for 24 hours. (A) IFN-γ and (B) IL-2 mRNA expression levels were detected by quantitative real-time polymerase chain reaction (qRT-PCR) and normalized with the expression of GAPDH. *p<0.05, **p<0.01, ***p<0.001.\nThe expression levels of IFN-γ were analyzed by qRT-PCR and normalized with GAPDH. **p<0.01, ***p<0.001.\n(§6) T cell activation requires multiple signals including PI3K, MAPK and calcium signaling pathways, and in order to identify the potential mechanism through which TRIP affects immune activation, Jurkat cells (2.0×10^6) were pretreated with different concentrations of TFP (0, 0.1, 1.0, 5.0 and 10.0 μM) (A, B) or LY294002 (0, 1, 5, 10 and 25 μM) (C, D) for one hour, then incubated with medium containing 2.5 μM TRIP for 24 hours. IFN-γ and IL-2 expression levels were detected by qRT-PCR and normalized with the expression of GAPDH. *p<0.05, **p<0.01, ***p<0.001.\n(§7) Jurkat cells (2×10^6) were pretreated with PD98059 (50 μM), TFP (10 μM) or LY294002 (25 μM) for one hour, then incubated with medium containing 2.5 μM TRIP for 24 hours. (A) IFN-γ and (B) IL-2 mRNA expression levels were detected by qRT-PCR and normalized with expression of GAPDH. **p<0.01, ***p<0.001, ****p<0.0001.\nThe effects on T cell activation of different functional group substitutions on the TRIP chemical structure (Formula Ia) were examined by measuring the expression of IFN-γ and IL-2 RNA in human acute T cell leukemia Jurkat cells in vitro. […]"}, "[2]": {"test_system": "IL-2", "test": "IL-2 mRNA expression in Jurkat cells by qRT-PCR, normalized with GAPDH", "type": "cell-based, human", "protocol": "as §1, §2, §3, §4, §5, §6, §7\nThe effects on T cell activation of different functional group substitutions on the TRIP chemical structure (Formula Ia) were examined by measuring the expression of IFN-γ and IL-2 RNA in human acute T cell leukemia Jurkat cells in vitro.\nA strong increase is defined as a ≥50% increase compared to the control. A moderate increase is defined as a 25-49% increase compared to the control. A weak increase is defined as a 0-24% increase compared to the control. No effect is when there was no increase compared to the control."}, "[3]": {"test_system": "regulatory T cells (Tregs)", "test": "Experiment 5: regulatory T cells (FoxP3+/CD4+) by flow cytometry", "type": "in vivo, human MUC1.Tg C57BL/6 mice", "details": "TRIP 100 mg/kg or letrozole 0.8 mg/kg daily oral 14 days", "protocol": "(§8) A total of 32 female human MUC1.Tg C57BL/6 mice, starting at approximately six weeks of age, were treated with urethane as described (Wurz G T. et al., J. Transl. Med., 11:64 (2013)). Two weeks following the final dose of urethane (Week 17), the mice were randomized into four treatment groups of approximately equal average weight (n=8, all groups): Control (no treatment); TRIP (i.e., ospemifene) 100 mg/kg; estradiol 25 μg/kg; and letrozole 0.8 mg/kg. TRIP and letrozole were prepared in DMSO and peanut oil as described above in Experiment 2 and administered daily for 14 days by oral gavage (100 μL). Estradiol was dissolved in 100% ethanol, diluted in PBS to achieve the desired concentration, and then administered daily for 14 days by s.c. injection at rotating sites using a 25-gauge needle. In Week 19, the study was terminated, 24 hours after the last treatments, and serum and spleens were collected for surface marker and Treg analyses.\n(§9) After two weeks of treatment, lymphocytes were isolated from spleen. T-cell surface markers (CD4, CD8, PD-1, CD28) and regulatory T cells (Tregs) were analyzed by flow cytometry."}, "[4]": {"test_system": "IFN-γ", "test": "Experiment 5: serum IFN-γ cytokine analysis", "type": "in vivo, human MUC1.Tg C57BL/6 mice", "details": "TRIP 100 mg/kg or letrozole 0.8 mg/kg daily oral 14 days", "protocol": "FIG. 13. Effects of TRIP on serum IFN-γ compared to estradiol and letrozole. Serum IFN-γ from untreated control, TRIP (100 mg/kg), estradiol (E2; 25 μg/kg), and letrozole (0.8 mg/kg) groups were analyzed following daily treatment for 14 days (n=8 all groups). **p<0.01, ***p<0.001.\nTRIP and letrozole were prepared in DMSO and peanut oil as described above in Experiment 2 and administered daily for 14 days by oral gavage (100 μL). Estradiol was dissolved in 100% ethanol, diluted in PBS to achieve the desired concentration, and then administered daily for 14 days by s.c. injection at rotating sites using a 25-gauge needle. In Week 19, the study was terminated, 24 hours after the last treatments, and serum and spleens were collected for surface marker and Treg analyses."}, "[5]": {"test_system": "T-cell surface markers (CD4, CD8, PD-1, CD28)", "test": "Experiment 5: T-cell surface markers of spleen lymphocytes by flow cytometry", "type": "in vivo, human MUC1.Tg C57BL/6 mice", "protocol": "FIG. 11. Lymphocyte phenotypes following different hormonal treatments. (A) CD3+CD4+; (B) CD3+CD8+; (C) CD3+CD28+; (D) CD8+CD28+; (E) CD3+PD-1+; and (F) CD8+PD-1+; T cell surface markers were stained with indicated antibodies after […] of TRIP (100 mg/kg), estradiol (E2; 25 μg/kg), and letrozole (0.8 mg/kg) treatments (n=8 all groups).\nas §8, §9"}, "[6]": {"details": "Jurkat cells pretreated 1 hour with PD98059 50 μM, TFP 10 μM or LY294002 25 μM, then 2.5 μM TRIP 24 hours (FIG. 4)"}, "[7]": {"details": "mRNA in Jurkat cells in vitro, relative to control sample without TRIP compound"}, "[8]": {"details": "Jurkat cells pretreated 1 hour with TFP 0.1-10.0 μM or LY294002 1-25 μM, then 2.5 μM TRIP 24 hours (FIG. 3)"}}, "data": [{"smiles": "CC/C(=C(\\c1ccccc1)c1ccc(OCCN(C)C)cc1)c1ccccc1", "note": "[tamoxifen, reference compound]", "values": [{"measurement": "expression of IFN-γ compared to control", "setting": "[1]; Jurkat cells, single agent 2.5 μM, 24 hours (FIG. 2)", "result": "no apparent effect"}, {"measurement": "effect on the T cell activating ability of TRIP (IFN-γ expression)", "setting": "[1]; Jurkat cells, tamoxifen 2.5 μM with TRIP 2.5 μM, 24 hours", "result": "does not affect"}]}, {"smiles": "COc1cccc(-c2cc(=O)c3ccccc3o2)c1N", "note": "[PD98059, reference compound]", "values": [{"measurement": "TRIP-induced expression of IL-2", "setting": "[2]; [6]", "result": "did not appear to affect"}, {"measurement": "TRIP-induced expression of IFN-γ", "setting": "[1]; [6]", "result": "did not appear to affect"}]}, {"smiles": "OCCOCCOc1ccc(/C(=C(/CCCl)c2ccccc2)c2ccccc2)cc1", "note": "[Z-2-{2-[4-(4-chloro-1,2-diphenyl-but-1-enyl)-phenoxy]-ethoxy}-ethanol]", "values": [{"measurement": "IL-2 Expression", "setting": "[2]; [7]", "result": "+++ (strong increase)"}, {"measurement": "IFN-γ Expression", "setting": "[1]; [7]", "result": "+++ (strong increase)"}]}, {"smiles": "CN1CCN(CCCN2c3ccccc3Sc3ccc(C(F)(F)F)cc32)CC1", "note": "[TFP, trifluoperazine, reference compound]", "values": [{"measurement": "TRIP-induced expression of IL-2", "setting": "[2]; [6]", "result": "significantly decreased"}, {"measurement": "TRIP-induced expression of IL-2", "setting": "[2]; [8]", "result": "significantly decreased"}, {"measurement": "TRIP-induced expression of IFN-γ", "setting": "[1]; [6]", "result": "significantly decreased"}, {"measurement": "TRIP-induced expression of IFN-γ", "setting": "[1]; [8]", "result": "significantly decreased"}]}, {"smiles": "N#Cc1ccc(C(c2ccc(C#N)cc2)n2cncn2)cc1", "note": "[letrozole, reference compound]", "values": [{"measurement": "Tregs (FoxP3+/CD4+) compared to estradiol treatment", "setting": "[3]", "result": "significantly inhibited"}, {"measurement": "serum IFN-γ concentrations compared to estradiol", "setting": "[4]", "result": "significantly increased"}, {"measurement": "expression of surface markers, including CD8 and CD28, vs control", "setting": "[5]; TRIP 100 mg/kg or letrozole 0.8 mg/kg daily oral 14 days", "result": "no difference"}, {"measurement": "CD4+ T cell population", "setting": "[5]; letrozole 0.8 mg/kg daily oral 14 days", "result": "lower"}]}]}
